Laboratory results from patent EP0364581A1, “METHOD OF STERILIZING PLANT POLLEN” (VSESOJUZNY NAUCHNO-ISSLEDOVATELSKY INST. SELSKOKHOZYAISTV. …, priority 1988, dated 1989).

Tests used:
Experiment in all cases: field test of gametocidal activity (sterilisation of anthers)
[1] = system: Winterweizens Sorte Kharkovskaya 81; type: in vivo, Winterweizen; conditions: V. und VI. Periode, 2%ige wäßrige Emulsion, 12 kg/ha; for Prozentsatz des Ansetzens der Körner bei freier Bestäubung: control = 100
From the text: (§1) Die gametozide Aktivität der erfindungsgemäßen Sterilisationsmittel war in Feldversuch in verschiedenen bodenklimatischen Zonen mit Teilstücken von 10 m^2 Größe in drei-- bis viermaliger Wiederholung nachgewiesen. Jedes Sterilisationsmittel wurde mindestens 5 Jahre lang geprüft.
(§2) Die Entwicklung der Perioden der Organogenese wird zytologisch überwacht. Die Behandlung von Pflanzen mit dem Sterilisationsmittel erfolgt am Anfang der fünften Periode der Organogenese nach Kupermann.
(§3) Mit dem Ahrenschieben verwirklicht man die Isolierung von Hauptähren und anderen Stockwerken in Pergamentbeuteln. Bei Weizen und Tritikale werden Einzelisolatoren verwendet. Bei Roggen schließt man je 1 Ähre von 5 bis 7 verschiedenen nebeneinander befindlichen Pflanzen in einen gemeinsamen Isolator ein. Bei Hirse wird jede Rispe getrennt isoliert. Der Sterilitätsprozentsatz (X) für Weizen, Roggen, Tritikale und Hirse wird nach der Formel [formula]
(§4) Samen von unbehandelten Kontrollpflanzen ermittelt.
(§5) Die Kornzahl in nicht isolierten Ähren von Kontrollpflanzen wird bedingt für 100% Ansetzen bei freier Bestäubung angenommen.
(§6) Um zuverlässige Angaben zu erhalten, verwendet man 20 bis 25 Isolatoren jeder Wiederholung für Weizen und Tritikale, 10 bis 15 Isolatoren jeder Wiederholung für Roggen und Hirse.
Pflanzen des Winterweizens Sorte Kharkovskaya 81 werden in der V. und VI. Periode der Organogenese (nach Kupermann) mit einer 2%igen wäßrigen Emulsion von Natriumsalz der 2-Methyl-3-zyklohexenkarbonsäure, Phthalsäuredihexylester, Ammoniumsalz der 2-Methyl-3-zyklohexenkarbon- säure, Phthalsäuredibutylester, Phthalsäurediallylester behandelt. Die Emulsion enthält 0,01 Masse% Dodezylsulfat und 0,1 Masse% C12-C14 -Kalziumalkylbenzolsulfonat. Der Verbrauch an Präparat beträgt 12 kg/ha.
Die Prüfergebnisse sind in der Tabelle 4 angeführt. Als Kontrolle dienten Pflanzen, behandelt ähnlich wie in Beispiel 1.

[2] = system: Winterweizens Sorte Polesskaya-70; type: in vivo, Winterweizen; conditions: V. Periode, 2%ige wäßrige Emulsion, 16 kg/ha; for Prozentsatz des Ansetzens bei freier Bestäubung: control = 100
From the text: as §1, §2, §3, §4, §5, §6
Pflanzen des Winterweizens Sorte Polesskaya-70 behandelt man in der V. Periode der Organogenese durch Zerstäubund einer 2%igen wäßrigen Emulsion von Phthalsäurediäthylester, Phthalsäurediallylester, Phthalsäuredihexylester, Kaliumsalz der 2-Methyl-3-zyklohexenkarbonsäure, Ammoniumsalz der 2-Methyl-3-zyklohexenkarbonsäure mit Hilfe einer Rückenspritze. Die Emulsion enthält 0,01 Masse% Tetrahydrofuran und 0,1 Masse% C12 -C14 -Kalziumalkylbenzolsulfonat.
Der Verbrauch an Präparat beträgt 16 kg/ha. Als Kontrolle dienen Pflanzen, behandelt mit dem Verdünner ohne Sterilisationsmittel.

[3] = system: Hirse Sorte K-9693 Kormovoe I; type: in vivo; conditions: V. Periode, 1%ige wäßrige Emulsion, 8 kg/ha; for Prozentsatz des Ansetzens der Körner bei freier Bestäubung: control = 100
From the text: as §1, §2, §3, §4, §5, §6
Pflanzen der Hirse Sorte K-9693 Kormovoe I werden in der V. Periode der Organogenese (nach Kupermann) mit einer 1%igen wäßrigen Emulsion von Ammoniumsalz der 2-Methyl-3-zyklo- nexenkarbonsäure, Phthalsäuredipropylester, Phthalsäuredibutylester, Phthalsäurediisobutylester, 2-Methyl-3-zyklo- hexenkarbonsäuremethylester, Phthalsäuredihexylester behandelt. Die Emulsion enthält 0,01 Masse% Dodezylsulfat und 0,1 Masse% C12-C14-Kalziumalkylbenzolsulfonat. Der Verbrauch an Präparat beträgt 8 kg/ha. Als Kontrolle dienen Pflanzen, behandelt mit einem Verdünner ohne Sterilisationsmittel. Die Prüfergebnisse sind in der Tabelle 18 angeführt. […] Periode der Organogenese erhalten.

C=CCOC(=O)c1ccccc1C(=O)OCC=C [Beispiel 22, Phthalsäurediallylester]
Kornzahl der Ähre bei freier Bestäubung [1]: 30,6 | Kornzahl der Ähre im Isolator [1]: 3,1 | Prozentsatz der Sterilität [1]: 90,3% | Prozentsatz des Ansetzens der Körner bei freier Bestäubung [1]: 90,3%

CCOC(=O)c1ccccc1C(=O)OCC [Beispiel 9, Phthalsäurediäthylester]
Kornzahl der Ähre bei freier Bestäubung [2]: 36,8 | Kornzahl der Ähre im Isolator [2]: 0,2 | Prozentsatz der Sterilität [2]: 99,4% | Prozentsatz des Ansetzens bei freier Bestäubung [2]: 97,4%

C=CCOC(=O)c1ccccc1C(=O)OCC=C [Beispiel 10, Phthalsäurediallylester]
Kornzahl der Ähre bei freier Bestäubung [2]: 35,6 | Kornzahl der Ähre im Isolator [2]: 6,2 | Prozentsatz der Sterilität [2]: 82,0% | Prozentsatz des Ansetzens bei freier Bestäubung [2]: 94,1%

CCCCOC(=O)c1ccccc1C(=O)OCCCC [Beispiel 21, Phthalsäuredibutylester]
Kornzahl der Ähre bei freier Bestäubung [1]: 28,6 | Kornzahl der Ähre im Isolator [1]: 0,0 | Prozentsatz der Sterilität [1]: 100,0% | Prozentsatz des Ansetzens der Körner bei freier Bestäubung [1]: 84,4%

CC1C=CCCC1C(=O)[O-].[Na+] (stereo not shown) [Beispiel 18, Natriumsalz der 2-Methyl-3-zyklohexenkarbonsäure]
Kornzahl der Ähre bei freier Bestäubung [1]: 32,6 | Kornzahl der Ähre im Isolator [1]: 0,2 | Prozentsatz der Sterilität [1]: 99,4% | Prozentsatz des Ansetzens der Körner bei freier Bestäubung [1]: 96,2%

CC1C=CCCC1C(=O)O.N (stereo not shown) [Beispiel 20, Ammoniumsalz der 2-Methyl-3-zyklohexenkarbon-säure]
Kornzahl der Ähre bei freier Bestäubung [1]: 31,7 | Kornzahl der Ähre im Isolator [1]: 0,0 | Prozentsatz der Sterilität [1]: 100,0% | Prozentsatz des Ansetzens der Körner bei freier Bestäubung [1]: 93,5%

CCCCCCOC(=O)c1ccccc1C(=O)OCCCCCC [Beispiel 11, Phthalsäuredihexylester]
Kornzahl der Ähre bei freier Bestäubung [2]: 36,0 | Kornzahl der Ähre im Isolator [2]: 0,1 | Prozentsatz der Sterilität [2]: 99,7% | Prozentsatz des Ansetzens bei freier Bestäubung [2]: 95,2%

CCCCOC(=O)c1ccccc1C(=O)OCCCC [Beispiel 99, Phthalsäuredibutylester]
Kornzahl der Rispe bei freier Bestäubung [3]: 127,9 | Kornzahl der Rispe im Isolator [3]: 0,0 | Prozentsatz der Sterilität [3]: 100,0% | Prozentsatz des Ansetzens der Körner bei freier Bestäubung [3]: 87,9%

CC1C=CCCC1C(=O)[O-].[K+] (stereo not shown) [Beispiel 12, Kaliumsalz der 2-Methyl-3-zyklohexenkarbonsäure]
Kornzahl der Ähre bei freier Bestäubung [2]: 35,8 | Kornzahl der Ähre im Isolator [2]: 0,0 | Prozentsatz der Sterilität [2]: 100,0% | Prozentsatz des Ansetzens bei freier Bestäubung [2]: 94,7%

COC(=O)C1CCC=CC1C (stereo not shown) [Beispiel 101, 2-Methyl-3-zyklo-hexenkarbonsäuremethylester]
Kornzahl der Rispe bei freier Bestäubung [3]: 127,8 | Kornzahl der Rispe im Isolator [3]: 0,0 | Prozentsatz der Sterilität [3]: 100,0% | Prozentsatz des Ansetzens der Körner bei freier Bestäubung [3]: 87,1%

CCCCCCOC(=O)c1ccccc1C(=O)OCCCCCC [Beispiel 19, Phthalsäuredihexylester]
Kornzahl der Ähre bei freier Bestäubung [1]: 30,8 | Kornzahl der Ähre im Isolator [1]: 0,0 | Prozentsatz der Sterilität [1]: 100,0% | Prozentsatz des Ansetzens der Körner bei freier Bestäubung [1]: 90,8%

CC1C=CCCC1C(=O)O.N (stereo not shown) [Beispiel 13, Ammoniumsalz der 2-Methyl-3-zyklohexenkarbonsäure]
Kornzahl der Ähre bei freier Bestäubung [2]: 36,9 | Kornzahl der Ähre im Isolator [2]: 3,7 | Prozentsatz der Sterilität [2]: 89,2% | Prozentsatz des Ansetzens bei freier Bestäubung [2]: 97,6%

CC(C)COC(=O)c1ccccc1C(=O)OCC(C)C [Beispiel 100, Phthalsäurediisobutylester]
Kornzahl der Rispe bei freier Bestäubung [3]: 110,4 | Kornzahl der Rispe im Isolator [3]: 0,0 | Prozentsatz der Sterilität [3]: 100,0% | Prozentsatz des Ansetzens der Körner bei freier Bestäubung [3]: 75,3%
